Drawing on patent US12492188B2, “1H-benzo[D]imidazole derivatives as TLR9 inhibitors for the treatment of fibrosis” (BRISTOL-MYERS SQUIBB COMPANY, priority 2020, dated 2025), this text covers IC50 for 10 compounds.

Like-named read-outs stand apart in the source and are kept apart here. Bounds are passed on as bounds.

Holding throughout (format): cell-based
One assay addresses T1, human TLR8 (Homo sapiens, UniProt Q9NR97).
T1 construct: host or cells: HEK-Blue cells (HEK293-derived reporter line)
T1 sequence (Q9NR97 27-1041): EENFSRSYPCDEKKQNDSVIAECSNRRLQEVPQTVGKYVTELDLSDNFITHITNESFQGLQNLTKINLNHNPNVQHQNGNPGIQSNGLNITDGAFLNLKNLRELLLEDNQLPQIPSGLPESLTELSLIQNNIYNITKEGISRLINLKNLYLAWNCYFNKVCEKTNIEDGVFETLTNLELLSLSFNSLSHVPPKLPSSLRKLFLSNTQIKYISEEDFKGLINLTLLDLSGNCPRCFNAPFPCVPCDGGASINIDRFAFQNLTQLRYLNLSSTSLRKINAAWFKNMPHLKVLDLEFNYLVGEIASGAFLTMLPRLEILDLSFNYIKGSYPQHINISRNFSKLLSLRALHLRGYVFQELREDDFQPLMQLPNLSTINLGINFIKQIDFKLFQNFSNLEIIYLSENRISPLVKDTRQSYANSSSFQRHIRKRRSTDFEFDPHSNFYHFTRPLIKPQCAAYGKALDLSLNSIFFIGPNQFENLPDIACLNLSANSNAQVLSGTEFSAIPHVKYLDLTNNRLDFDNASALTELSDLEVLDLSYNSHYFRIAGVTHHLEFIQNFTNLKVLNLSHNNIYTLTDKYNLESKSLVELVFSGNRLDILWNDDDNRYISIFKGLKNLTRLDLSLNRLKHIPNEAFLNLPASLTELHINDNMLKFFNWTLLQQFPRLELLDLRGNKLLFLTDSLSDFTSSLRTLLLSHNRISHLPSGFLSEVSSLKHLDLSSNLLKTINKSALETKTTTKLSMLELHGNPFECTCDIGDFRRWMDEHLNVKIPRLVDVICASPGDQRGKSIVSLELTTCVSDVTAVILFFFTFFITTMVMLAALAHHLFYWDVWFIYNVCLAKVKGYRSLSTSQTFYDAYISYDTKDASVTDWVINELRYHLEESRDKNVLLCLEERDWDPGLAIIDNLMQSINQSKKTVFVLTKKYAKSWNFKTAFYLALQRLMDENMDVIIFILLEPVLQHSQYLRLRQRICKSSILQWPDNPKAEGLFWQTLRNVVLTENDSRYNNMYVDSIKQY
In words: TLR8 inhibition reporter assay (HEK-Blue cells, secreted embryonic alkaline phosphatase reporter). To be noted: HEK-Blue cells overexpressing human TLR8, stimulated with R848 15.9 μM; read-out: TLR 8 IC50. In short, it runs like this: (§1)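 Read-out is SEAP colour from HEK-Blue Detection medium after 22 h at 37 °C, converted to percent inhibition between agonist-plus-DMSO and reference-inhibitor wells. Receptor-overexpressing HEK-Blue cells received compound over 0.05 nM–50 μM for 30 min before agonist: gardiquimod 7.5 μM for TLR7, R848 15.9 μM for TLR8, ODN2006 5 nM for TLR9.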

For a further assay, the target named is T2, human TLR7 (Homo sapiens, UniProt Q9NYK1).
T2 construct: host or cells: HEK-Blue cells (HEK293-derived reporter line)
T2 sequence (Q9NYK1 27-1049): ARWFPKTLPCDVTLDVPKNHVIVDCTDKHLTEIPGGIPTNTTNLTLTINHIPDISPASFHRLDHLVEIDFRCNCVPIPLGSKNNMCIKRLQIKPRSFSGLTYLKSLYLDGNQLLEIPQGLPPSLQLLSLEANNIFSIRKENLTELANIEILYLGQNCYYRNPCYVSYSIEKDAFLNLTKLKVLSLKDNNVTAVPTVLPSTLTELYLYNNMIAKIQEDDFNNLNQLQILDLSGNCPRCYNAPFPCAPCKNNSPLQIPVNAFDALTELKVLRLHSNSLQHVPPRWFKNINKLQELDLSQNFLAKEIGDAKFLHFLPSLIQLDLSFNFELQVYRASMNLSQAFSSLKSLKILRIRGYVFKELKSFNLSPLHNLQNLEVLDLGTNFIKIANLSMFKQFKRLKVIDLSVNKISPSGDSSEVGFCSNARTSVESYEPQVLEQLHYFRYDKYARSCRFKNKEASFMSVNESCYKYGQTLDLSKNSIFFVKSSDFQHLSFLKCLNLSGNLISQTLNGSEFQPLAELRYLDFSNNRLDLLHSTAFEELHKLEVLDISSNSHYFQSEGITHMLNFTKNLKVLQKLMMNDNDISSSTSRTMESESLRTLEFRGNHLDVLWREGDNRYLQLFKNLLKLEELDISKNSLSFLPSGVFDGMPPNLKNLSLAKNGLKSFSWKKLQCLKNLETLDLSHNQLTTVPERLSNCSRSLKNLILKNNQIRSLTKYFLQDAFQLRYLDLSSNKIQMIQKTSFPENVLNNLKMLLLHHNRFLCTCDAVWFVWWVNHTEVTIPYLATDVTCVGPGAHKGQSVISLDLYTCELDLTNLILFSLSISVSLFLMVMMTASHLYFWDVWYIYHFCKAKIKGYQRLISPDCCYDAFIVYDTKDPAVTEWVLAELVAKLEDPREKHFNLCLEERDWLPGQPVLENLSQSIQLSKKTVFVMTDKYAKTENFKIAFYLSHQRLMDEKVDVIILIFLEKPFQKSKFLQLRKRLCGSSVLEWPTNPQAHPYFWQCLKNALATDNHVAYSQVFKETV
The experiment in a line: TLR7 inhibition reporter assay (HEK-Blue cells, secreted embryonic alkaline phosphatase reporter). The following applies: HEK-Blue cells overexpressing human TLR7, stimulated with gardiquimod 7.5 μM; read-out: TLR 7 IC50. In short, it runs like this:
as §1
For orientation: In a reporter assay the amount or activity of a reporter protein is the signal.

For another assay, the target named is T3, human TLR9 (Homo sapiens, UniProt Q9NR96).
T3 construct: host or cells: HEK-Blue cells (HEK293-derived reporter line)
T3 sequence (Q9NR96 26-1032): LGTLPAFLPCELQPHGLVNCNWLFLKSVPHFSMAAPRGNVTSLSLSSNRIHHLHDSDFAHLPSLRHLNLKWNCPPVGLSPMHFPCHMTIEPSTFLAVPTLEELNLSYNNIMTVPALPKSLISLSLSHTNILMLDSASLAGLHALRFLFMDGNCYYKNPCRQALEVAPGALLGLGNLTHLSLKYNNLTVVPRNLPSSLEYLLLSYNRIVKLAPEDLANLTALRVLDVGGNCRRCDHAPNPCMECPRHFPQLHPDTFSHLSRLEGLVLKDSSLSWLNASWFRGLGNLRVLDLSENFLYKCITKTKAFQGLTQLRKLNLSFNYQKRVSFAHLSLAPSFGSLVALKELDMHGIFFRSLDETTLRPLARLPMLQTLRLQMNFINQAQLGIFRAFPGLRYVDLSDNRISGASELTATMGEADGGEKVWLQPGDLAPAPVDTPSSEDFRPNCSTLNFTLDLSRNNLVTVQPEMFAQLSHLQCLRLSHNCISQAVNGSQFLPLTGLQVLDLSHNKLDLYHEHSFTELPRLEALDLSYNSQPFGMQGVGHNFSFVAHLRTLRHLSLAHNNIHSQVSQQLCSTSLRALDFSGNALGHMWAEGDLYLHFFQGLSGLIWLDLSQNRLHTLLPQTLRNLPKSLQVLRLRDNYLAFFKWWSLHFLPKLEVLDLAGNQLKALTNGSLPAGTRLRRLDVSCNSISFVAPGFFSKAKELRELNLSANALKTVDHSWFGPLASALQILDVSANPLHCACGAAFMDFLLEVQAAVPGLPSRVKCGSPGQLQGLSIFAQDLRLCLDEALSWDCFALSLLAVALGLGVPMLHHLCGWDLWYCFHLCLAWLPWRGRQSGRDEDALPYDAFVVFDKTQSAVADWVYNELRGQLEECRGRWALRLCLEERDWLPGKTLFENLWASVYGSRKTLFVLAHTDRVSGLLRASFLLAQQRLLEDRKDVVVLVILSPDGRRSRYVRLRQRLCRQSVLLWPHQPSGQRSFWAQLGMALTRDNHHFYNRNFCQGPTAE
In words: TLR9 inhibition reporter assay (HEK-Blue cells, secreted embryonic alkaline phosphatase reporter). In short, it runs like this: as §1

The mark [1] stands for this setting: HEK-Blue cells overexpressing human TLR9, stimulated with ODN2006 5 nM, read-out: TLR 9 IC50.
The mark [2] stands for this setting: HEK-Blue human TLR9 reporter cells.
Setting [3] is: HEK-Blue cells overexpressing human TLR9, stimulated with ODN2006 5 nM, 22 hour incubation, reporter readout.

A word on the IC50: it is the concentration that inhibits the measured activity by half. `Cn1c(-c2ccc(S(C)(=O)=O)cc2)nc2c(F)c(C3CCN(C4CC5CCC(C4)N5CC4COC4)CC3)ccc21` (single isomer, unassigned) [Example 194, 4-fluoro-1-methyl-2-(4-(methylsulfonyl)phenyl)-5-(1-(8-(oxetan-3-ylmethyl)-8-azabicyclo[3.2.1]octan-3-yl)piperidin-4-yl)-1H-benzo[d]imidazole]: the IC50 at human TLR8 was > 50 µM; on human TLR7, 45.6 µM; against human TLR9 it was 630 nM; on human TLR9 (setting [1]), 631 nM.
Consider `CS(=O)(=O)c1ccc(-c2nc3c(F)cc(C4CCN(C5CC6CCC(C5)N6C5CCC5)CC4)cc3n2C2CC2)cc1` (single isomer, unassigned) [Example 327, 6-(1-(8-cyclobutyl-8-azabicyclo[3.2.1]octan-3-yl)piperidin-4-yl)-1-cyclopropyl-4-fluoro-2-(4-(methylsulfonyl)phenyl)-1H-benzo[d]imidazole], for which the half-maximal inhibitory concentration (IC50) at human TLR8 was determined as 18.4 µM; at human TLR7, 2 µM; at human TLR9 (setting [1]), 111 nM; on human TLR9 (setting [2]) it was 110 nM.
`COc1ccc(-c2nc3c(C)cc(C4CCN(C5CCN(C6CC6)CC5)CC4)cc3[nH]2)cc1OC` [Example 44, 6-(1′-cyclopropyl-[1,4′-bipiperidin]-4-yl)-2-(3,4-dimethoxyphenyl)-4-methyl-1H-benzo[d]imidazole]: the IC50 at human TLR8 was found to be 5.5 µM; on human TLR7, 9.1 µM; against human TLR9 (setting [3]) it was 52 nM; on human TLR9 (setting [1]), 52 nM.
As to `Cc1cc(-c2ccc(CN3CC4(CN(C)C4)C3)cc2)cc2c1nc(-c1ccc(S(C)(=O)=O)cc1)n2C` [Example 370, 1,4-dimethyl-6-(4-((6-methyl-2,6-diazaspiro[3.3]heptan-2-yl)methyl)phenyl)-2-(4-(methylsulfonyl)phenyl)-1H-benzo[d]imidazole], the results for the IC50 at human TLR8, at human TLR7 and against human TLR9 (setting [3]) were 4.5 µM, 1.8 µM and 56 nM, respectively.
As to `CC(C)N1C2CCC1CC(N1CCC(c3ccc4c(nc(-c5ccc(S(C)(=O)=O)cc5)n4C)c3F)CC1)C2` (single isomer, unassigned) [Example 89, 4-fluoro-5-(1-(8-isopropyl-8-azabicyclo[3.2.1]octan-3-yl)piperidin-4-yl)-1-methyl-2-(4-(methylsulfonyl)phenyl)-1H-benzo[d]imidazole], the IC50 at human TLR8 was > 50 µM; on human TLR7, > 50 µM; at human TLR9 (setting [3]), 160 nM; at human TLR9 (setting [1]) it was 162 nM.
For `CS(=O)(=O)c1ccc(-c2nc3ccc(C4CCN(C5CCN(C6CCOCC6)CC5)CC4)c(F)c3[nH]2)cc1` [Example 182, 7-fluoro-2-(4-(methylsulfonyl)phenyl)-6-(1′-(tetrahydro-2H-pyran-4-yl)-[1,4′-bipiperidin]-4-yl)-1H-benzo[d]imidazole], the IC50 on human TLR8 is > 50 µM; on human TLR7 it was > 50 µM; on human TLR9, 320 nM; on human TLR9 (setting [1]), 316 nM.
As to `Cc1cc(C2CCN(C3CC4CCC(C3)N4C3CCOCC3)CC2)cc2c1nc(-c1ccc(S(C)(=O)=O)cc1)n2C` (single isomer, unassigned) [Example 161, 1,4-dimethyl-2-(4-(methylsulfonyl)phenyl)-6-(1-(8-(tetrahydro-2H-pyran-4-yl)-8-azabicyclo[3.2.1]octan-3-yl)piperidin-4-yl)-1H-benzo[d]imidazole], the half-maximal inhibitory concentration (IC50) was > 25 µM on human TLR8, > 25 µM at human TLR7, 210 nM on human TLR9 and 211 nM on human TLR9 (setting [1]).
For `COc1ccc(-c2nc3c(C)cc(C4CCN(C5CC6CCC(C5)N6CC(C)C)CC4)cc3[nH]2)cc1OC` (single isomer, unassigned) [Example 20, 2-(3,4-dimethoxyphenyl)-6-(1-(8-isobutyl-8-azabicyclo[3.2.1]octan-3-yl)piperidin-4-yl)-4-methyl-1H-benzo[d]imidazole], the IC50 on human TLR8 is > 50 µM; at human TLR7, 4.1 µM; on human TLR9 (setting [3]), 69 nM.
For the compound `COc1cc(-c2nc3c(C)cc(C4CCN(C5CC6CCC(C5)N6CC5CC5)CC4)cc3n2C)cn2ncnc12` (stereo not shown) [Example 358, 6-(6-(1-(8-(cyclopropylmethyl)-8-azabicyclo[3.2.1]octan-3-yl)piperidin-4-yl)-1,4-dimethyl-1H-benzo[d]imidazol-2-yl)-8-methoxy-[1,2,4]triazolo[1,5-a]pyridine], the concentration for half-maximal inhibition (IC50) was determined as 2.8 µM at human TLR8, 0.1 µM on human TLR7, 8.1 nM on human TLR9 (setting [1]) and 8.1 nM on human TLR9 (setting [2]).
With `CCn1c(-c2ccc(OC)c(OC)c2)nc2ccc(C3CCN(C4CCN(C(C)C)CC4)CC3)cc21` (single isomer, unassigned) [Example 8, 2-(3,4-dimethoxyphenyl)-1-ethyl-6-(1′-isopropyl-[1,4′-bipiperidin]-4-yl)-1H-benzo[d]imidazole], the IC50 on human TLR8 is > 50 µM; on human TLR7, 2.5 µM; against human TLR9 (setting [3]), 210 nM.
